Experimental data from patent US20070156342A1, “Pseudo-sequence method for comparing 7tm receptors with respect to the physico-chemical properties of their binding sites” (7TM PHARMA A/S, priority 2003, published 2007).

Target: T1, GRP44 (CRTH2) (Homo sapiens, UniProt Q9Y5Y4)
T1 sequence (Q9Y5Y4 1-395): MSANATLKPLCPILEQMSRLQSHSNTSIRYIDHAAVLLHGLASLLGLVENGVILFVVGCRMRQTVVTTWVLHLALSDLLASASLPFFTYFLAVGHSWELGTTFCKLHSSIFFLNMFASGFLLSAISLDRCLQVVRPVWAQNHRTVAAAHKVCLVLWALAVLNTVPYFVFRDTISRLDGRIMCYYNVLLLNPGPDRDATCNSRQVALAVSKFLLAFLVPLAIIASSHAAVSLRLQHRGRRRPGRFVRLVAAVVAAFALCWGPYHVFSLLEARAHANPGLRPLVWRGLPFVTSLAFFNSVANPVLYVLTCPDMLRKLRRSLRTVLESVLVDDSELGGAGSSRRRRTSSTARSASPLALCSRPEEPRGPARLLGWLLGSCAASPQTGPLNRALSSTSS
Assay: Inhibition of [3H]PGD2 at GRP44 (CRTH2)
Type: binding
Description: A model using theoretical size and electronic descriptors ranked the angiotensin AT2 and angiotensin AT1 receptors to be closely related to GRP44 (CRTH2) with respect to ligand-binding features in the binding site.

`CCOc1nc2cccc(C(=O)O)c2n1Cc1ccc(-c2ccccc2-c2nnn[nH]2)cc1` [candesartan] was tested, and the “binding to CRTH2 (in words)” value (angiotensin II ligand found via the related receptor) was “also binding to CRTH2” and the IC50 (radioligand [3H]PGD2) was 2100 nM.
